Assays:
[1] = molecular target: T1, IDO1 (Homo sapiens, UniProt P14902); test: Hela cell-based functional assay of IDO1 inhibition (kynurenine read at 480 nm); settings: Hela cells, 100 ng/mL human IFN-γ, 18 h; averages ±SD of two parallel experiments
T1 construct: host or cells: HeLa cells stimulated with 100 ng/mL human IFN-γ
Protocol: Based on a comprehensive review of the literature, we employed a Hela cell-based functional assay to investigate the IDO1 inhibition activities of the designed compounds.
To assess the inhibitory effect of the designed compounds against IDO1, Hela cells were seeded at 50,000–60,000 cells per well in 100 μL of complete Dulbecco’s modified eagle medium growth medium in a 96-well plate and incubated for 12–18 h. On the second day, diluted inhibitor at a final concentration of 100 ng/mL human IFN-γ was added (100 μL per well) and incubated at 37°C with 5% CO2 for 18 h. On the third day, 140 μL of medium was transferred into a new 96-well plate, and the protein was precipitated with 10 μL of 6.1 N trichloroacetic acid (CCl3COOH) at 50°C for 30 min. The plate was then centrifuged at 2,500 rpm for 10 min, and 100 μL of supernatant was transferred to another 96-well plate and mixed with 100 μL of 2% (w/v) p-dimethylaminobenzaldehyde in CH3COOH. The plate was incubated at 25°C for 10 min, and the yellow color derived from kynurenine was measured at 480 nm using a microplate reader (PE, United States). Inhibition curves with IC50 values were generated using Prism 6.0.

[2] = test system: melanin-concentrating hormone; parameters: method as in McBriar et al., 2006; settings: melanin-concentrating hormone antagonist; ref McBriar et al., 2006; cited from earlier work
[3] = test system: Staphylococcus aureus; parameters: method as in Babu et al., 2015; settings: ref Babu et al., 2015; cited from earlier work
[4] = test system: pancreatic cancer cells; parameters: method as in Khanet al.; settings: ref Khanet al.; cited from earlier work
[5] = test system: laryngeal squamous carcinoma cells; parameters: method as in Khanet al.; settings: ref Khanet al.; cited from earlier work
[6] = test system: HIV-1 protease; parameters: method as in The Lipton laboratory; settings: ref The Lipton laboratory; cited from earlier work

T1 sequence (P14902 whole entry): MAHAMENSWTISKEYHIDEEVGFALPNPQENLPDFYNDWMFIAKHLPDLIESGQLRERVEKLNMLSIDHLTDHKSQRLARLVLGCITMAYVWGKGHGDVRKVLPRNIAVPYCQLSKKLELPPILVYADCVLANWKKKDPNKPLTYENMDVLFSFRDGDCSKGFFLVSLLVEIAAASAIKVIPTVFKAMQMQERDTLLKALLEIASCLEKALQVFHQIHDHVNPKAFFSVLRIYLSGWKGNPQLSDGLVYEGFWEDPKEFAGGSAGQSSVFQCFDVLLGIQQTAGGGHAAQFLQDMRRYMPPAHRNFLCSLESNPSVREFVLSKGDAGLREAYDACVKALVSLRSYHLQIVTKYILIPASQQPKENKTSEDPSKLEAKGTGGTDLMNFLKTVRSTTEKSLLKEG

SMILES	IC50 [1] [µM]	also measured
Cc1ccc(-c2csc3nnc(SCC(=O)Nc4ccc5c(c4)OCO5)n23)cc1 [Amg-1, reference compound]	3.97	
CN1CCN(CCCN(C(=O)Nc2ccc(F)c(C(F)(F)F)c2)[C@@H]2CC[C@]3(c4ccc(C#N)cc4)C[C@H]23)CC1 [Compound 7]		effect on body weight [2]: effective in reducing body weight
O=C(Nc1ccc(F)c(C(F)(F)F)c1)N1CCN(c2ncc3cc(-c4cccnc4F)ccc3n2)CC1 [Compound 8]		inhibitory effect on the proliferation of Staphylococcus aureus [3]: excellent inhibitory effect
CNc1ccccc1C(=O)NC(=O)Nc1ccc(Oc2ncc(Br)cn2)c(C)c1 [Compound 9]		repression of pancreatic cancer cells [4]: effectively repress; repression of laryngeal squamous carcinoma cells [5]: effectively repress
COC(=O)C(NC(=O)C(NC(=O)C(Cc1ccccc1)NC(=O)NC(Cc1ccccc1)NC(=O)C(C)NC(=O)C(C)N)C(C)C)C(C)C (centres unmarked) [Compound 10]		inhibitory effect on HIV-1 protease [6]: moderate inhibitory effect

Continued, in another order:

IC50 [1] [µM]	SMILES	also measured
> 20	COc1ccc(NC(=O)NCc2cn(Cc3ccccc3Br)nn2)cc1 [Compound 3a, 1-((1-(2-bromobenzyl) -1H-1,2,3-triazol-4-yl)methyl) -3-(4-methoxyphenyl) urea]	
> 20	O=C(NCc1cn(Cc2ccccc2Br)nn1)Nc1ccc(Br)cc1 [Compound 3d, 1-((1-(2-bromobenzyl) -1H-1,2,3-triazol-4-yl)methyl) -3-(4-bromophenyl) urea]	
> 20	O=C(NCc1cn(Cc2cccc(Br)c2)nn1)Nc1ccc(Br)cc1 [Compound 3e, 1-((1-(3-bromobenzyl) -1H-1,2,3-triazol-4-yl)methyl) -3-(4-bromophenyl) urea]	
17.9 ± 3.14	COc1ccc(NC(=O)NC(C)(C)c2cn(Cc3ccccc3Br)nn2)cc1 [Compound 3f, 1-(2-(1-(2-bromobenzyl)-1H-1,2,3-triazol-4-yl)propan-2-yl)-3-(4-methoxyphenyl)urea]	
1.73 ± 0.97	COc1ccc(NC(=O)NC(C)(C)c2cn(Cc3cccc(Br)c3)nn2)cc1 [Compound 3g, 1-(2-(1-(3-bromobenzyl)-1H-1,2,3-triazol-4-yl)propan-2-yl)-3-(4-methoxyphenyl)urea]	
5.82 ± 2.65	COc1ccc(NC(=O)NC(C)(C)c2cn(Cc3cccc(OC)c3)nn2)cc1 [Compound 3h, 1-(2-(1-(3-methoxybenzyl)-1H-1,2,3-triazol-4-yl)propan-2-yl)-3-(4-methoxyphenyl)urea]	
> 20	CC(C)(NC(=O)Nc1ccc(Br)cc1)c1cn(Cc2ccccc2Br)nn1 [Compound 3i, 1-(2-(1-(2-bromobenzyl)-1H-1,2,3-triazol-4-yl)propan-2-yl)-3-(4-bromophenyl)urea]	
> 20	CC(C)(NC(=O)Nc1ccc(Br)cc1)c1cn(Cc2cccc(Br)c2)nn1 [Compound 3j, 1-(2-(1-(3-bromobenzyl)-1H-1,2,3-triazol-4-yl)propan-2-yl)-3-(4-bromophenyl)urea]	

— PMC10318132, “Synthesis and activity study of novel N,N-diphenylurea derivatives as IDO1 inhibitors” (Frontiers in Chemistry, 2023)
